{"source": "ChEMBL document CHEMBL4706559", "about": "“New indolylarylsulfone non-nucleoside reverse transcriptase inhibitors show low nanomolar inhibition of single and double HIV-1 mutant strains” (Eur J Med Chem, 2020)", "key": {"[1]": {"test": "Cytotoxicity against human MT-4 cells assessed as reduction in cell viability by MTT assay", "type": "cell-based, MT4"}, "[2]": {"test": "Selectivity ratio of CC50 for human MT4 cells to EC50 for antiviral activity against HIV-1 NL4-3 infected in human MT4 cells", "type": "toxicity, cell-based", "details": "read-out: Ratio CC50/EC50"}, "[3]": {"test_system": "Human immunodeficiency virus 1", "test": "Antiviral activity against HIV1 harboring RT K103N/Y181C double mutant infected in human MT4 cells assessed as protection against virus-induced cytopathic effect by MTT assay", "type": "functional, organism-based", "details": "Human immunodeficiency virus 1, MT4"}, "[4]": {"test_system": "Human immunodeficiency virus 1", "test": "Resistance index, ratio of EC50 for antiviral activity against HIV1 harboring RT K103N/Y181C double mutant infected in human MT4 cells to EC50 for antiviral activity against HIV1 NL4-3 infected in human MT4 cells", "type": "functional"}, "[5]": {"target": "T1, Human immunodeficiency virus type 1 reverse transcriptase (Human immunodeficiency virus 1, UniProt Q72547)", "test": "Inhibition of RNA-dependent DNA polymerase activity of wild type recombinant HIV-1 His-tagged p66/p51 reverse transcriptase assessed as inhibition of [3H]dTTP incorporation using poly(rA)/oligo(dT) as templates incubated for 15 mins by MicroBeta scintillation counting method"}, "[6]": {"target": "Human immunodeficiency virus type 1 reverse transcriptase (Human immunodeficiency virus 1, UniProt Q72547, K103N)", "test": "Inhibition of RNA-dependent DNA polymerase activity of recombinant HIV-1 p66/p51 reverse transcriptase K103N mutant assessed as inhibition of [3H]dTTP incorporation using poly(rA)/oligo(dT) as templates incubated for 15 mins by MicroBeta scintillation counting method"}, "[7]": {"target": "Human immunodeficiency virus type 1 reverse transcriptase (Human immunodeficiency virus 1) (UniProt Q72547)", "test": "Inhibition of wild type HIV1 p66/p51 reverse transcriptase assessed as apparent Vmax at 75 nM using 10 to 500 uM poly(rA)/oligo(dT) as templates in presence of fixed concentration of [3H]dTTP by Michaelis-Menten analysis (reference value: 10 +/- 0.5%)"}, "[8]": {"test_system": "Human immunodeficiency virus 1", "test": "Inhibition of HIV1 p66/p51 reverse transcriptase K103N/Y181C double mutant assessed as apparent Km of substrate at 75 nM using […] as templates in presence of fixed concentration of [3H]dTTP by Michaelis-Menten analysis (reference value: 106+/- 16 nM)"}, "[9]": {"test_system": "Human immunodeficiency virus 1", "test": "Inhibition of HIV1 p66/p51 reverse transcriptase K103N/Y181C double mutant assessed as apparent Km of substrate at 300 nM using […] as templates in presence of fixed concentration of [3H]dTTP by Michaelis-Menten analysis (reference value: 106+/- 16 nM)"}, "[10]": {"test_system": "Human immunodeficiency virus 1", "test": "Inhibition of HIV1 p66/p51 reverse transcriptase K103N/Y181C double mutant assessed as apparent Vmax at 150 nM using fixed concentration of poly(rA)/oligo(dT) as templates in presence of 2 to 100 uM of [3H]dTTP by Michaelis-Menten analysis (reference value: 9.6 +/- 0.4%)"}, "[11]": {"target": "T1, Human immunodeficiency virus type 1 reverse transcriptase", "test": "Binding affinity to free form of wild type HIV-1 p66/p51 reverse transcriptase using poly(rA)/oligo(dT) as templates in presence of [3H]dTTP"}, "[12]": {"test": "Binding affinity to HIV-1 p66/p51 reverse transcriptase K103N/Y181C double mutant/nucleic acid binary complex using poly(rA)/oligo(dT) as templates in presence of [3H]dTTP", "set-up": "species or system Human immunodeficiency virus 1"}, "[13]": {"test": "Binding affinity to HIV-1 p66/p51 reverse transcriptase K103N/Y181C double mutant/nucleic acid/dTTP ternary complex using poly(rA)/oligo(dT) as templates in presence of [3H]dTTP", "set-up": "species or system Human immunodeficiency virus 1"}, "[14]": {"target": "Human immunodeficiency virus type 1 reverse transcriptase (Human immunodeficiency virus 1) (UniProt Q72547)", "test": "Binding affinity to wild type HIV-1 p66/p51 reverse transcriptase/nucleic acid/dTTP ternary complex assessed as association constant using poly(rA)/oligo(dT) as templates in presence of [3H]dTTP"}, "[15]": {"test_system": "Human immunodeficiency virus 1", "test": "Binding affinity to free form of HIV-1 p66/p51 reverse transcriptase K103N/Y181C double mutant assessed as association constant using poly(rA)/oligo(dT) as templates in presence of [3H]dTTP"}, "[16]": {"test_system": "Human immunodeficiency virus 1", "test": "Binding affinity to HIV-1 p66/p51 reverse transcriptase K103N/Y181C double mutant/nucleic acid binary complex assessed as association constant using poly(rA)/oligo(dT) as templates in presence of [3H]dTTP"}, "[17]": {"test_system": "Human immunodeficiency virus 1", "test": "Binding affinity to HIV-1 p66/p51 reverse transcriptase K103N/Y181C double mutant/nucleic acid/dTTP ternary complex assessed as association constant using poly(rA)/oligo(dT) as templates in presence of [3H]dTTP"}, "[18]": {"target": "Human immunodeficiency virus type 1 reverse transcriptase (Human immunodeficiency virus 1) (UniProt Q72547)", "test": "Binding affinity to wild type HIV-1 p66/p51 reverse transcriptase/nucleic acid binary complex assessed as dissociation constant using poly(rA)/oligo(dT) as templates in presence of [3H]dTTP"}, "[19]": {"target": "Human immunodeficiency virus type 1 reverse transcriptase (Human immunodeficiency virus 1) (UniProt Q72547)", "test": "Synergistic inhibition of wild type HIV-1 p66/p51 reverse transcriptase assessed as combination index using poly(rA)/oligo(dT) as templates in presence of [3H]dTTP preincubated with enzyme and AZTTP followed by substrate addition"}, "[20]": {"test_system": "Human immunodeficiency virus 1", "test": "Synergistic inhibition of HIV-1 p66/p51 reverse transcriptase K103N/Y181C double mutant assessed as combination index using poly(rA)/oligo(dT) as templates in presence of [3H]dTTP preincubated with enzyme and AZTTP followed by substrate addition", "type": "functional"}, "[21]": {"target": "Human immunodeficiency virus type 1 reverse transcriptase (Human immunodeficiency virus 1) (UniProt Q72547)", "test": "Ratio of Kon of wild type HIV-1 p66/p51 reverse transcriptase/nucleic acid binary complex to Kon of wild type HIV-1 p66/p51 reverse transcriptase/nucleic acid/dTTP ternary complex using poly(rA)/oligo(dT) as templates in presence of [3H]dTTP"}, "[22]": {"test_system": "Human immunodeficiency virus 1", "test": "Ratio of Kon of HIV-1 p66/p51 reverse transcriptase K103N/Y181C double mutant/nucleic acid/dTTP ternary complex to Kon of free form of HIV-1 p66/p51 reverse transcriptase using poly(rA)/oligo(dT) as templates in presence of [3H]dTTP"}, "[23]": {"test_system": "Human immunodeficiency virus 1", "test": "Ratio of Kon of HIV-1 p66/p51 reverse transcriptase K103N/Y181C double mutant/nucleic acid/dTTP ternary complex to Kon of HIV-1 p66/p51 reverse transcriptase/nucleic acid binary complex using poly(rA)/oligo(dT) as templates in presence of [3H]dTTP"}, "[24]": {"test_system": "Human immunodeficiency virus 1", "test": "Ratio of Koff of HIV-1 p66/p51 reverse transcriptase K103N/Y181C double mutant/nucleic acid/dTTP ternary complex to Koff of HIV-1 p66/p51 reverse transcriptase/nucleic acid binary complex using poly(rA)/oligo(dT) as templates in presence of [3H]dTTP"}, "[25]": {"test_system": "Human immunodeficiency virus 1", "test": "Antiviral activity against wild type HIV-1 P1 infected in human C8166 cells assessed as reduction in viral RNA production at 25 nM", "type": "functional", "details": "Human immunodeficiency virus 1, P1, C8166"}, "[26]": {"test_system": "Human immunodeficiency virus 1", "test": "Antiviral activity against wild type HIV-1 P1 infected in human C8166 cells assessed as reduction in viral p24 antigen production at 25 nM", "type": "functional", "details": "Human immunodeficiency virus 1, P1, C8166"}}, "data": [{"smiles": "Cc1cc(C)cc(S(=O)(=O)c2c(C(=O)NCc3ccccc3O)[nH]c3ccc(Cl)cc23)c1", "values": [{"measurement": "CC50", "setting": "[1]", "value": 23800, "unit": "nM"}, {"measurement": "selectivity ratio", "setting": "[2]", "value": "> 39700"}, {"measurement": "EC50", "setting": "[3]", "value": 6.2, "unit": "nM"}, {"measurement": "Ratio EC50", "setting": "[4]", "value": ">8.8"}, {"measurement": "IC50", "setting": "[5]", "value": 83, "unit": "nM"}, {"measurement": "IC50", "setting": "[6]", "value": 73, "unit": "nM"}, {"measurement": "Vmax(app)", "setting": "[7]", "value": 3.3, "unit": "%"}, {"measurement": "Km", "setting": "[8]", "value": 0.108, "unit": "µM"}, {"measurement": "Km", "setting": "[9]", "value": 0.104, "unit": "µM"}, {"measurement": "Vmax(app)", "setting": "[10]", "value": 2.9, "unit": "%"}, {"measurement": "Ki", "setting": "[11]", "value": 31, "unit": "nM"}, {"measurement": "Ki", "setting": "[12]", "value": 86, "unit": "nM"}, {"measurement": "Ki", "setting": "[13]", "value": 78, "unit": "nM"}, {"measurement": "K", "setting": "[14]", "value": "15 10^-5/nM/s"}, {"measurement": "K", "setting": "[15]", "value": "10 10^-5/nM/s"}, {"measurement": "K", "setting": "[16]", "value": "10 10^-5/nM/s"}, {"measurement": "K", "setting": "[17]", "value": "42 10^-5/nM/s"}, {"measurement": "K", "setting": "[18]", "value": "35 10^-3/s"}, {"measurement": "CI", "setting": "[19]", "value": 1.15}, {"measurement": "CI", "setting": "[20]", "value": 0.81}, {"measurement": "Ratio", "setting": "[21]", "value": 7}, {"measurement": "Ratio", "setting": "[22]", "value": 4}, {"measurement": "Ratio", "setting": "[23]", "value": 4}, {"measurement": "Ratio", "setting": "[24]", "value": 4}, {"measurement": "inhibition at 0.025 µM", "setting": "[25]", "value": 100, "unit": "%"}, {"measurement": "inhibition at 0.025 µM", "setting": "[26]", "value": 100, "unit": "%"}]}]}
